ChEMBL document CHEMBL6103664, “Novel Pyrimidinyl Sulfonamide Derivatives as GPR17 Modulators” (ACS Med Chem Lett, 2025)

Experiments:
Assay type in all cases: ADME, Microsome
Settings in all cases: time 55 min
[1] = Clearance in human microsomes assessed per mg protein at 1 uM preincubated for 10 mins followed by NADPH addition and measured after 1 to 45 mins by LC-MS/MS analysis
[2] = Clearance in mouse microsomes assessed per mg protein at 1 uM preincubated for 10 mins followed by NADPH addition and measured after 1 to 45 mins by LC-MS/MS analysis
[3] = Clearance in rat microsomes assessed per mg protein at 1 uM preincubated for 10 mins followed by NADPH addition and measured after 1 to 45 mins by LC-MS/MS analysis

Row | microsomal CLint at 1 µM [1] [µL/min/mg] | microsomal CLint at 1 µM [2] [µL/min/mg] | microsomal CLint at 1 µM [3] [µL/min/mg] | SMILES
1 | 10 | 12 | 32 | COc1nc(NS(=O)(=O)c2c[nH]c(-c3ncccc3F)c2)nc(OC)c1OCCF
2 | 10 | 10 | 50 | COc1nc(NS(=O)(=O)c2c[nH]c(-c3nccs3)c2)nc(OC)c1OC(F)F
3 | 10 | 21 | 81 | COc1nc(NS(=O)(=O)c2c[nH]c(-c3ccccc3)c2)nc(OC)c1OCC(F)F
